2 molecules from article PMC10587169, “Tuning aminopolycarboxylate chelators for efficient complexation of trivalent actinides” (Scientific Reports, 2023) can be followed below.

A short description of series [1]: Solubility in aqueous electrolyte media (observation). Type of series: physicochemical.
Series [2] in a line: Competitive complexation liquid-liquid extraction with HDEHP. It is filed as binding. Conditions: competitive solvent extractions, T = 20 ± 1 °C; for logβ101 (ML), Am3+ / logβ101 (ML), Eu3+ / logβ111 (MHL), Am3+ / logβ111 (MHL), Eu3+: I = 2.00 M sodium perchlorate; for logβ101 (ML), Am3+ / logβ101 (ML), Eu3+ / logβ111 (MHL), Am3+ / logβ111 (MHL), Eu3+ / logK111, Am3+ / logK111, Eu3+: ±3σ; for logβ101 (ML), Cm3+: p[H+] variation not monitored. On the procedure: (§1) Stability constants for the coordination of Eu^3+, Am^3+, Cm^3+, and Cf^3+ were also achieved by monitoring the suppression of liquid–liquid partitioning of the radiotracer due to the increasing presence of an aqueous complexant. Aqueous solutions were prepared containing sub-millimolar amounts of ligand while maintaining p[H^+] at 1.7, 1.8, 1.9, 2.0, and 2.1. Ionic strength was maintained at 2.00 M using sodium perchlorate. Aqueous complexation was balanced with the appropriate choice of HDEHP concentration in octane to allow accurate quantification of metal distribution. Non-aqueous phases were pre-equilibrated three times with 2.00 M NaClO4 at the corresponding p[H^+]. Preliminary time-dependent studies indicated the phase transfer equilibrium was attained for all measurements with H4octapa and H4pypa-peg (Figures S2 and S3 in the SI). For the mixtures traced with radioisotopes, the activity was measured using gamma spectroscopy (ORTEC GEM50P4 coaxial HPGe detector, DSPEC gamma spectrometer) for ^154Eu (123.07 keV), ^243Am (74.66 keV), and ^249Cf (388.17 keV) and liquid scintillation counting (Perkin Elmer Tri-Carb 3180 TR/SL) for ^248Cm. The ratio of radioisotope activity in the organic and aqueous phases defined the liquid–liquid distribution.
(§2) Liquid–liquid partitioning of trivalent f-elements was monitored in presence of H4octapa and H4pypa-peg using a strong liquid cation exchanger, bis–(2-ethylhexyl)phosphoric acid, HDEHP. This competitive solvent extraction methodology was used to determine the conditional stability constants for complexation of Eu^3+, Am^3+, Cm^3+, and Cf^3+ with H4octapa and H4pypa-peg. The metals, present at radiotracer concentrations ([…]), distributed between an organic phase containing HDEHP in n-octane and an aqueous phase containing the complexant at varying concentrations and aqueous acidity. The interpretation of the competitive complexation liquid–liquid distribution data (SI Tables S3 through S5 for H4octapa and S6 through S8 for H4pypa-peg) considered two complex formation equilibria as described by Eqs. (4) and (5). All collected distribution data indicated the average ligand-to-metal stoichiometry of 1.00 ± 0.04 for H4octapa and 1.00 ± 0.03 for H4pypa-peg (see SI Figures S10A and S11A). The partitioning of a trivalent metal ion as facilitated by a dimerized HDEHP cation exchanger can be expressed by Eq. (6) as quantified by the extraction constant, Kex (subscript org refers to organic-soluble species).6 M^3++3HDEHP2,org⇆MHDEHP23,org+3H^+Kex=MHDEHP23,orgH^+^3/M^3+HDEHP2,org^3
Substitution of equilibrium and extraction constants Eqs. (3)–(5) into Eq. (6) yields Eq. (8).8 DM=KexHDEHP2,org^3H^+^3/1+β101L^4-+β111L^4-H^+
At constant HDEHP concentration and p[H^+], when the distribution of the metal ion in absence of ligand is labelled as D^0, the liquid–liquid partitioning of the metal will adhere to Eq. (9),9 D^0/DM-1=β^appL^4- where β^app is the apparent stability constant as represented by β ^app = β101 + β111[H^+].
The Figs. 7A for H4octapa and Fig. 7C for H4pypa-peg show representative Eu^3+, Am^3+, and Cf^3+ sets of dependencies collected at constant aqueous acidities to determine β^app constants from the slopes of the error-weighted least-squares regression analyses. Equivalent dependencies were also collected at different p[H^+] conditions to study variation of β^app trends with p[H^+] as presented in Figs. 7B,D for H4octapa and H4pypa-peg, respectively. The distribution plots for Eu^3+, Am^3+, and Cf^3+ for H4pypa-peg clearly show variation with the changing aqueous acidity, which yielded good estimates for the conditional stability constants for the formation of ML^− and MHL(aq) (Table 5). The collected trends for Cf^3+ in the presence of H4octapa vary to a lesser extent, enabling the determination of β101 only. The p[H^+] variation was not monitored for the coordination of ^248Cm^3+ with both APC ligands due to limited availability of this radioisotope. […]

Assay in series [3]: as above
Type of series: binding. Conditions: competitive solvent extractions, T = 20 ± 1 °C, ±3σ. The procedure:
as §1, §2
The stoichiometry for the extraction of trivalent metal ion by HDEHP was verified at 2.85 ± 0.03 by slope analysis study using ^249Cf^3+ as representative ion for H4octapa (SI Figure S10B) and 2.78 ± 0.13 for H4pypa-peg (SI Figure S11B). […]

“Also recorded” adds a separate entry of the source.

`O=C(O)CN(Cc1cc(-c2cn(CCOCCOCCO)nn2)cc(CN(CC(=O)O)Cc2cccc(C(=O)O)n2)n1)Cc1cccc(C(=O)O)n1` [H4pypa-peg, 6,6'-((((4-(1-(2-(2-(2-hydroxyethoxy)ethoxy)ethyl)-1H-1,2,3-triazol-4-yl)pyridine-2,6-diyl)bis–(methylene))bis–((carboxymethyl)azanediyl))bis–(methylene)) dipicolinic acid]: in series [1] (moderately acidic aqueous electrolyte mixtures), the “aqueous solubility compared to unfunctionalized H4pypa” value is on record as “significantly improved aqueous solubility”. In series [2], the “logβ101 (ML), Am3+” value was 19.6 (1)^^; the “logβ101 (ML), Eu3+” value is given as 18.7 (2); the “logβ111 (MHL), Am3+” value is 21.8 (1)^^; the “logβ111 (MHL), Eu3+” value was 20.6 (4). In series [2], the “logβ101 (ML), Cm3+” value is given as 19.8; the “logK111, Am3+” value was 2.2 (1)^^; the “logK111, Eu3+” value is given as 1.9 (4). In addition, in series [3] (I = 2.00 M sodium perchlorate), the “logβ101 (ML), Cf3+” value is reported as 21.0 (4)^^ and the “logβ111 (MHL), Cf3+” value was 23.2 (2)^^. Further, the “logK111, Cf3+” value in series [3] was 2.2 (1)^^.
`O=C(O)CN(CCN(CC(=O)O)Cc1cccc(C(=O)O)n1)Cc1cccc(C(=O)O)n1` [H4octapa, 6,6′-((ethane-1,2-diylbis–((carboxymethyl)azanediyl))bis–(methylene))dipicolinic acid]: the “solubility in high ionic strength perchlorate media” value in series [1] (aqueous sodium perchlorate electrolyte medium, 2 M (Na+/H+)ClO4) is reported as “limited; also recorded: Low solubility”. For the same molecule, in series [2], the “logβ101 (ML), Am3+” value is 19.3 (6); the “logβ101 (ML), Eu3+” value is given as 18.59 (2); the “logβ111 (MHL), Am3+” value was “– 21.8 (2)^^”; the “logβ111 (MHL), Eu3+” value is recorded as 20.45 (2). Also, in series [2], the “logβ101 (ML), Cm3+” value is reported as 19.4^^; the “logK111, Am3+” value is given as “– 2.5 (6)^^”; the “logK111, Eu3+” value is on record as 1.86 (2). In addition, in series [3] (I = 2.00 M sodium perchlorate), the “logβ101 (ML), Cf3+” value is listed as 20.6 (2)^^.
